From patent US20250101023A1, “HETEROARYL DERIVATIVE AND USES THEREOF” (IUCF-HYU (INDUSTRY-UNIVERSITY COOPERATION FOUNDATION …, priority 2022, published 2025)

Assays:
CDK9/cyclin T1 = CDK9/cyclin T1 (Homo sapiens (Human), UniProt P50750); experiment: Kinome-wide profiling; assay type: biochemical; settings: read-out: % Residual Activity (mean)
JAK1 = JAK1 (Homo sapiens (Human), UniProt P23458); experiment: Kinome-wide profiling; assay type: biochemical; settings: read-out: % Residual Activity (mean)
FLT1/VEGFR1 = FLT1/VEGFR1 (Homo sapiens (Human), UniProt P17948); experiment: Kinome-wide profiling; assay type: biochemical; settings: read-out: % Residual Activity (mean)
MARK1 = MARK1 (Homo sapiens (Human), UniProt Q9P0L2); experiment: Kinome-wide profiling; assay type: biochemical; settings: read-out: % Residual Activity (mean)
CLK4 = CLK4 (Homo sapiens (Human), UniProt Q9HAZ1); experiment: Kinome-wide profiling; assay type: biochemical; settings: read-out: % Residual Activity (mean)
MKK4 = MKK4 (Homo sapiens (Human), UniProt P45985); experiment: Kinome-wide profiling; assay type: biochemical; settings: read-out: % Residual Activity (mean)
[1] = Liver microsomal metabolic stability; assay type: in vitro ADME
Experimental: 5 derivatives were evaluated for in vitro metabolic stability in liver microsomes from three different species (human, dog, mouse) and for inhibitory activity against 5 representative cytochrome P450 enzymes (CYPs)(Table 3). In terms of liver microsomal stability, the 2′-pyridyl group is more suitable than the α-methyl-4′-pyridyl group as the terminal aromatic group at position 6, and the aminopyrimidyl group is better than the aminopyridyl group as a substituent at position 2.

ABL2/ARG = ABL2/ARG (Homo sapiens (Human), UniProt P42684); experiment: Kinome-wide profiling; assay type: biochemical; settings: read-out: % Residual Activity (mean)
DRAK1/STK17A = DRAK1/STK17A (Homo sapiens (Human), UniProt Q9UEE5); experiment: Kinome-wide profiling; assay type: biochemical; settings: read-out: % Residual Activity (mean)
RSK1 = RSK1 (Homo sapiens (Human), UniProt Q15418); experiment: Kinome-wide profiling; assay type: biochemical; settings: read-out: % Residual Activity (mean)
CK1g3 = CK1g3 (Homo sapiens (Human), UniProt Q9Y6M4); experiment: Kinome-wide profiling; assay type: biochemical; settings: read-out: % Residual Activity (mean)
GRK7 = GRK7 (Homo sapiens (Human), UniProt Q8WTQ7); experiment: Kinome-wide profiling; assay type: biochemical; settings: read-out: % Residual Activity (mean)
MLK2/MAP3K10 = MLK2/MAP3K10 (Homo sapiens (Human), UniProt Q02779); experiment: Kinome-wide profiling; assay type: biochemical; settings: read-out: % Residual Activity (mean)
FAK/PTK2 = FAK/PTK2 (Homo sapiens (Human), UniProt Q05397); experiment: Kinome-wide profiling; assay type: biochemical; settings: read-out: % Residual Activity (mean)
Haspin = Haspin (Homo sapiens (Human), UniProt Q8TF76); experiment: Kinome-wide profiling; assay type: biochemical; settings: read-out: % Residual Activity (mean)
CAMK1g = CAMK1g (Homo sapiens (Human), UniProt Q96NX5); experiment: Kinome-wide profiling; assay type: biochemical; settings: read-out: % Residual Activity (mean)
CAMKK1 = CAMKK1 (Homo sapiens (Human), UniProt Q8N5S9); experiment: Kinome-wide profiling; assay type: biochemical; settings: read-out: % Residual Activity (mean)
MARK2/PAR-1Ba = MARK2/PAR-1Ba (Homo sapiens, UniProt Q7KZI7); experiment: Kinome-wide profiling; assay type: biochemical; settings: read-out: % Residual Activity (mean)
NEK4 = NEK4 (Homo sapiens (Human), UniProt P51957); experiment: Kinome-wide profiling; assay type: biochemical; settings: read-out: % Residual Activity (mean)
MST4 = MST4 (Homo sapiens (Human), UniProt Q9P289); experiment: Kinome-wide profiling; assay type: biochemical; settings: read-out: % Residual Activity (mean)
TIE2/TEK = TIE2/TEK (Homo sapiens (Human), UniProt Q02763); experiment: Kinome-wide profiling; assay type: biochemical; settings: read-out: % Residual Activity (mean)
IKKa/CHUK = IKKa/CHUK (Homo sapiens (Human), UniProt O15111); experiment: Kinome-wide profiling; assay type: biochemical; settings: read-out: % Residual Activity (mean)
NEK5 = NEK5 (Homo sapiens (Human), UniProt Q6P3R8); experiment: Kinome-wide profiling; assay type: biochemical; settings: read-out: % Residual Activity (mean)
IKKb/IKBKB = IKKb/IKBKB (Homo sapiens (Human), UniProt O14920); experiment: Kinome-wide profiling; assay type: biochemical; settings: read-out: % Residual Activity (mean)
PKA = PKA (Homo sapiens (Human), UniProt P17612); experiment: Kinome-wide profiling; assay type: biochemical; settings: read-out: % Residual Activity (mean)
IRAK1 = IRAK1 (Homo sapiens (Human), UniProt P51617); experiment: Kinome-wide profiling; assay type: biochemical; settings: read-out: % Residual Activity (mean)
ABL1 = ABL1 (Homo sapiens (Human), UniProt P00519); experiment: Kinome-wide profiling; assay type: biochemical; settings: read-out: % Residual Activity (mean)
GRK5 = GRK5 (Homo sapiens (Human), UniProt P34947); experiment: Kinome-wide profiling; assay type: biochemical; settings: read-out: % Residual Activity (mean)
DYRK1B = DYRK1B (Homo sapiens (Human), UniProt Q9Y463); experiment: Kinome-wide profiling; assay type: biochemical; settings: read-out: % Residual Activity (mean)
FGFR1 = FGFR1 (Homo sapiens (Human), UniProt P11362); experiment: Kinome-wide profiling; assay type: biochemical; settings: read-out: % Residual Activity (mean)
ITK = ITK (Homo sapiens (Human), UniProt Q08881); experiment: Kinome-wide profiling; assay type: biochemical; settings: read-out: % Residual Activity (mean)
WEE1 = WEE1 (Homo sapiens (Human), UniProt P30291); experiment: Kinome-wide profiling; assay type: biochemical; settings: read-out: % Residual Activity (mean)
HCK = HCK (Homo sapiens (Human), UniProt P08631); experiment: Kinome-wide profiling; assay type: biochemical; settings: read-out: % Residual Activity (mean)
JAK2 = JAK2 (Homo sapiens (Human), UniProt O60674); experiment: Kinome-wide profiling; assay type: biochemical; settings: read-out: % Residual Activity (mean)
ERK7/MAPK15 = ERK7/MAPK15 (Homo sapiens (Human), UniProt Q8TD08); experiment: Kinome-wide profiling; assay type: biochemical; settings: read-out: % Residual Activity (mean)
PKCd = PKCd (Homo sapiens (Human), UniProt Q05655); experiment: Kinome-wide profiling; assay type: biochemical; settings: read-out: % Residual Activity (mean)
TESK1 = TESK1 (Homo sapiens (Human), UniProt Q15569); experiment: Kinome-wide profiling; assay type: biochemical; settings: read-out: % Residual Activity (mean)

RSK1, sequence (Q15418 whole entry): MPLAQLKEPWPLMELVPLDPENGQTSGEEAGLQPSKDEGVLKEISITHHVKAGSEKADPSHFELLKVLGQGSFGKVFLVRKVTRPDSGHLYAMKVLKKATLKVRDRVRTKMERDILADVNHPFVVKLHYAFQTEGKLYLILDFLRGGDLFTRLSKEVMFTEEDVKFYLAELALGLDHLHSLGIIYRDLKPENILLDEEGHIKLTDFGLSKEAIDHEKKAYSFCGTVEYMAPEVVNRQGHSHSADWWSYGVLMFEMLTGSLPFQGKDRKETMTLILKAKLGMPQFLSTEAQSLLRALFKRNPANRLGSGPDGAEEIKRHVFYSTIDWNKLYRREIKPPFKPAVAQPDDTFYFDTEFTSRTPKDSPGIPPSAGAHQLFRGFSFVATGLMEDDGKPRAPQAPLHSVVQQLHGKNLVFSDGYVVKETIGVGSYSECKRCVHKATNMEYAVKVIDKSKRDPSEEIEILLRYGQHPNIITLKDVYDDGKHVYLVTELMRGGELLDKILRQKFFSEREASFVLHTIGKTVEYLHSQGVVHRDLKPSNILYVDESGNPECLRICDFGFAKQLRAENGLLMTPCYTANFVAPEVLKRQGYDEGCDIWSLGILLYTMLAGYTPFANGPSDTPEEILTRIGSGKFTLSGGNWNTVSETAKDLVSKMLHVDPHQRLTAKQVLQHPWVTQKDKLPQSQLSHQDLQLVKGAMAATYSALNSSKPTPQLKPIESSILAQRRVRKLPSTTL
CK1g3, sequence (Q9Y6M4 whole entry): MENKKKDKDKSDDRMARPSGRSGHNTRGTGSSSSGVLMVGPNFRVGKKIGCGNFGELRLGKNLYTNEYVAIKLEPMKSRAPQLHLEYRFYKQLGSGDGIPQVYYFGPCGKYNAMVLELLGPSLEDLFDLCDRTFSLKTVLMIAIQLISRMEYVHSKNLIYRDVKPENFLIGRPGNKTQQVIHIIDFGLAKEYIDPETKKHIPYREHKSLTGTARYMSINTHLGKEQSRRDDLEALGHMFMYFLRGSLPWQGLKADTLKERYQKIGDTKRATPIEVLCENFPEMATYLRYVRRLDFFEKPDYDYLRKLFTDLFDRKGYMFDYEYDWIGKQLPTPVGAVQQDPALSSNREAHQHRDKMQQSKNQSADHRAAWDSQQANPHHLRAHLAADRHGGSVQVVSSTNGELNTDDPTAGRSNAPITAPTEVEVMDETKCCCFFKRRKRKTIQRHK
FLT1/VEGFR1, sequence (P17948 27-1338): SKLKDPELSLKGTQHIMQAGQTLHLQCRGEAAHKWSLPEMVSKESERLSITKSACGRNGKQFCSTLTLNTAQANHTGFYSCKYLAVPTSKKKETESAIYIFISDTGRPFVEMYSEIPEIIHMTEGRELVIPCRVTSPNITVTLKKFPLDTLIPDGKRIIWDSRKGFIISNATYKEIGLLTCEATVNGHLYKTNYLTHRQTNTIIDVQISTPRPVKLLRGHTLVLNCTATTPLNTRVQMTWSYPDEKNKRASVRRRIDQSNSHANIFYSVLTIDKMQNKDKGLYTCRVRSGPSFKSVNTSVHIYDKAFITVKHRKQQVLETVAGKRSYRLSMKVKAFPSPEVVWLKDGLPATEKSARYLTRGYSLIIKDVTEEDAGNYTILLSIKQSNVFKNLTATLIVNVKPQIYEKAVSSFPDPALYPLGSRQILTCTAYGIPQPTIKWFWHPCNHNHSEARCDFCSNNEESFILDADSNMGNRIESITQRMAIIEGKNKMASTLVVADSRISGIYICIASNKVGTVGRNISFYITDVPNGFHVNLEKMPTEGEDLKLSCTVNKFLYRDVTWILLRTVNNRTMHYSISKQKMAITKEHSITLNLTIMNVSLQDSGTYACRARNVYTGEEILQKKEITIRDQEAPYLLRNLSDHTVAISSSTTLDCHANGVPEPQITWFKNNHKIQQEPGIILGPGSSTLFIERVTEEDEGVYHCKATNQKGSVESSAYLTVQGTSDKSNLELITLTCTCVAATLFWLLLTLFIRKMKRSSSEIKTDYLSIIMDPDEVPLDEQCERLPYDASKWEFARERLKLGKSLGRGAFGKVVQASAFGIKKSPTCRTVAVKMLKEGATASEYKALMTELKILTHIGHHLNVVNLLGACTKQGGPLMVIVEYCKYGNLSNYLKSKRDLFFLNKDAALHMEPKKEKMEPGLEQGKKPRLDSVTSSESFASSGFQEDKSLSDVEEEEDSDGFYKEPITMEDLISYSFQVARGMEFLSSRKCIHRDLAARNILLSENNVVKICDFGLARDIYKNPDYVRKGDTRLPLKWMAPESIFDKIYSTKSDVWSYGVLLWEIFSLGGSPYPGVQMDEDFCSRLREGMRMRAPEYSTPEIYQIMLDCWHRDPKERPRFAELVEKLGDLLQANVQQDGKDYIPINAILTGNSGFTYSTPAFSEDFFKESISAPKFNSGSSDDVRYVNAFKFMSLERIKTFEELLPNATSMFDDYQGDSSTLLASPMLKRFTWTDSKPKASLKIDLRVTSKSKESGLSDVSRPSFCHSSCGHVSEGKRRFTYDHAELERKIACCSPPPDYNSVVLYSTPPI
ITK, sequence (Q08881 whole entry): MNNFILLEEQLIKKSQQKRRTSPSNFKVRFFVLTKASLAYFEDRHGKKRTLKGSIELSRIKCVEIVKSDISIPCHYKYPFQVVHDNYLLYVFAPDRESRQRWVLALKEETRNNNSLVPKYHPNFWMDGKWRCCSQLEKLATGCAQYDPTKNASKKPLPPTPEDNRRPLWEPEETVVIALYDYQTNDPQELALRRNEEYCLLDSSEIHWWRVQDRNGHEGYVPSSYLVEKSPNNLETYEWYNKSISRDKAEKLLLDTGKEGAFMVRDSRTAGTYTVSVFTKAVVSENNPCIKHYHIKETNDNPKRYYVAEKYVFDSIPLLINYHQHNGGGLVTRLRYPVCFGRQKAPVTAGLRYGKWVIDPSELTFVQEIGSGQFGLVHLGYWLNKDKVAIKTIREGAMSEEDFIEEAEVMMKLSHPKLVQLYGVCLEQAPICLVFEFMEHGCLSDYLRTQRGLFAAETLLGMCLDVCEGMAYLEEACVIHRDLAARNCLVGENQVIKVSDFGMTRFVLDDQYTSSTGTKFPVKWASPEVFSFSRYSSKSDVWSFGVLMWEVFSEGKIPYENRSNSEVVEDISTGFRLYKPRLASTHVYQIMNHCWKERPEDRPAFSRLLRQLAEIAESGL
MARK1, sequence (Q9P0L2 whole entry): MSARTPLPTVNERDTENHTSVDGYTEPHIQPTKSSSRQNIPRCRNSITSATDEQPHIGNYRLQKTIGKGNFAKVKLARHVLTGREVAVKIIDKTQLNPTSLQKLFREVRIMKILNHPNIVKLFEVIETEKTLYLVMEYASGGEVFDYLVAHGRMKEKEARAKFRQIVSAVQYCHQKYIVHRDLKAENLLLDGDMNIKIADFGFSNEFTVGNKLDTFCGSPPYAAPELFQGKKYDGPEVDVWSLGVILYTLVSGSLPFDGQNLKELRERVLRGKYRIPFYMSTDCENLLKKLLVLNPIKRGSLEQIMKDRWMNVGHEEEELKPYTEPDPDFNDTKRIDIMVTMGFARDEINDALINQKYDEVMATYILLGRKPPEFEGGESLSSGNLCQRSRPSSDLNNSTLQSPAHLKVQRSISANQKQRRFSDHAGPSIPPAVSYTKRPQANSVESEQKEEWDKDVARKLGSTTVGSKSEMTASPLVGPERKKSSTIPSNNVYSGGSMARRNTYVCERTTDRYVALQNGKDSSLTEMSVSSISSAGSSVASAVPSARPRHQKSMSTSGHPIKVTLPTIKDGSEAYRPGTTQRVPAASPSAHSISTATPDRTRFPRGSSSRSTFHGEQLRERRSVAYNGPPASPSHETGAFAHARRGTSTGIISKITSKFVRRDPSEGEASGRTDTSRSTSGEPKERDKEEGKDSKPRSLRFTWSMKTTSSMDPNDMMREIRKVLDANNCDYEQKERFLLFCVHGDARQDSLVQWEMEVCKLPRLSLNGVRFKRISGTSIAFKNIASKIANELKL
PKCd, sequence (Q05655 whole entry): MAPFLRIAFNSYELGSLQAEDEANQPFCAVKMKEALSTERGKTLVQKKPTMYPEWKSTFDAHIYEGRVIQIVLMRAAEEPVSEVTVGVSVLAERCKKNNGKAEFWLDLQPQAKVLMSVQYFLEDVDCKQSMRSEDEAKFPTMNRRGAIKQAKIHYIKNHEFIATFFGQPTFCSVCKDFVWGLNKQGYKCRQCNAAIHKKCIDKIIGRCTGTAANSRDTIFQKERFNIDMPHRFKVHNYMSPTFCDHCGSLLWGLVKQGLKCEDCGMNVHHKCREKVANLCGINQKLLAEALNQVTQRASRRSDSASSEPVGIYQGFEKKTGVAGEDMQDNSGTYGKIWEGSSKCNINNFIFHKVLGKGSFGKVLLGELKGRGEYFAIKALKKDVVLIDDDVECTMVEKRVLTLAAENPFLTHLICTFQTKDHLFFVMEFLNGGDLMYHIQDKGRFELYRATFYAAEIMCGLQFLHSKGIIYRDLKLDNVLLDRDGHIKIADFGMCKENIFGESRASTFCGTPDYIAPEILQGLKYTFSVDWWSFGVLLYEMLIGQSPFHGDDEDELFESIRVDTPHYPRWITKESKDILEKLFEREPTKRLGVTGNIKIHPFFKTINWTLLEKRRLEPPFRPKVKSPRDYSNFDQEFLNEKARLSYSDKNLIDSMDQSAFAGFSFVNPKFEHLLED
MST4, sequence (Q9P289 whole entry): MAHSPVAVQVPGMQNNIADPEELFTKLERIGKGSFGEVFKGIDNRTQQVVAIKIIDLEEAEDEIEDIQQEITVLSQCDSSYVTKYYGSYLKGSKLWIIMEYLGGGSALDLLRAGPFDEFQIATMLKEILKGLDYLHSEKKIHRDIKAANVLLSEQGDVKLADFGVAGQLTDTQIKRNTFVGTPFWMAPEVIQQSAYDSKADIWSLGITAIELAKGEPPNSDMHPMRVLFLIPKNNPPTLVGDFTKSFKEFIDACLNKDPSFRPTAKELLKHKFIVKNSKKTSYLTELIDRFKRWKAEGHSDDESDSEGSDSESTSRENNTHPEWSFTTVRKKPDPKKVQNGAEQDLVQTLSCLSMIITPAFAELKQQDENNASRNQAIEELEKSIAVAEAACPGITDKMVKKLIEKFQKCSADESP

For CCn1cnc2c(NCc3ccc(-c4ccccn4)nc3)nc(-c3ccc(N)nc3)nc21 [Example 53, N-([2,2′-bipyridin]-5-ylmethyl)-2-(6-aminopyridin-3-yl)-9-ethyl-9H-purin-6-amine], the remaining activity at 10 µM (CDK9/cyclin T1) was 0.78%, the remaining activity at 10 µM (JAK1) was 92.1% and the remaining activity at 10 µM (FLT1/VEGFR1) was 36.3%. The remaining activity at 10 µM (MARK1) was 81.5%, the remaining activity at 10 µM (CLK4) was 28.7% and the remaining activity at 10 µM (MKK4) was 96.4%. For the same compound, the “Liver microsomal metabolic stability (% remaining amount) Dog” value ([1]; dog liver microsomes) was 46.2%, the “Liver microsomal metabolic stability (% remaining amount) Human” value ([1]; human liver microsomes) was 64.8% and the “Liver microsomal metabolic stability (% remaining amount) Mouse” value ([1]; mouse liver microsomes) was 49.9%. It also gave a remaining activity at 10 µM (ABL2/ARG) of 56.1%, a remaining activity at 10 µM (DRAK1/STK17A) of 79.3% and a remaining activity at 10 µM (RSK1) of 59.1%. For the same compound, the remaining activity at 10 µM (CK1g3) was 24.4%, the remaining activity at 10 µM (GRK7) was 49.7% and the remaining activity at 10 µM (MLK2/MAP3K10) was 62.3%. For the same compound, the remaining activity at 10 µM (FAK/PTK2) was 52.5%, the remaining activity at 10 µM (Haspin) was 79.4% and the remaining activity at 10 µM (CAMK1g) was 54.3%. The remaining activity at 10 µM (CAMKK1) was 18.7%, the remaining activity at 10 µM (MARK2/PAR-1Ba) was 74.3% and the remaining activity at 10 µM (NEK4) was 95.8%. The remaining activity at 10 µM (MST4) was 45.8%, the remaining activity at 10 µM (TIE2/TEK) was 34.8% and the remaining activity at 10 µM (IKKa/CHUK) was 71.5%. For the same compound, the remaining activity at 10 µM (NEK5) was 83.8%, the remaining activity at 10 µM (IKKb/IKBKB) was 83.7% and the remaining activity at 10 µM (PKA) was 93.1%. For the same compound, the remaining activity at 10 µM (IRAK1) was 79%, the remaining activity at 10 µM (ABL1) was 61.2% and the remaining activity at 10 µM (GRK5) was 91.5%. It also gave a remaining activity at 10 µM (DYRK1B) of 3.19%, a remaining activity at 10 µM (FGFR1) of 28.8% and a remaining activity at 10 µM (ITK) of 81.7%. It also gave a remaining activity at 10 µM (WEE1) of 90.2%, a remaining activity at 10 µM (HCK) of 46.5% and a remaining activity at 10 µM (JAK2) of 87%. The remaining activity at 10 µM (ERK7/MAPK15) was 13.5%, the remaining activity at 10 µM (PKCd) was 95.2% and the remaining activity at 10 µM (TESK1) was 93.1%.
